Tests used:
[1] = Evaluation of a conversion rate to 2-acetylnaphtho[2,3-b]furan-4,9-dione in CD1 mouse plasma; type: in vitro ADME; settings: CD1 mouse plasma, 1 umol/L, 37° C.
Procedure, shortened: (§1)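 Compounds at 1 umol/L were incubated at 37° C in human plasma, CD1 mouse plasma or pH 7.4 phosphate buffer, sampled up to 120 minutes, acid/acetonitrile-deproteinised and analysed by LC-MS (ESI positive). Conversion (%) derived from the peak area ratio of the active form to phenytoin internal standard.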

[2] = Evaluation of a conversion rate to 2-acetylnaphtho[2,3-b]furan-4,9-dione in pH 7.4 phosphate buffer solution; type: physicochemical; settings: 1 umol/L, 37° C.
Procedure, shortened: as §1

[3] = Solution stability test; type: physicochemical; settings: for % Residual ratio: 25 umol/L
Procedure: For Example 6, Example 11, and Example 22, the stability in each pH was measured. Test compounds at a concentration of 25 umol/L in respective buffer solutions prepared at pH 2.0, 3.0, 5.0, 7.4, and 9.0 were allowed to stand at 25° C. After 0, 3, 6, 9, 12, and 24 hours, they were measured with HPLC.
The buffer solutions used at respective pHs are as described below. pH 2.0: 50 mmol/L glycine buffer solution pH 3.0: 50 mmol/L citrate buffer solution pH 5.0: 50 mmol/L citrate buffer solution pH 7.4: 50 mmol/L phosphate buffer solution pH 9.0: 50 mmol/L glycine buffer solution
The measurement condition of HPLC is as described below.
Column temperature: 40° C.
Mobile phase: A: 0.1% trifluoroacetic acid-containing water

[4] = Pharmacokinetics test, intravenous administration; settings: for Plasma Compound Concentration: Activated form 1 in plasma, 9.6 mg/kg (i.v.)
Procedure: For water-soluble prodrugs described in the EXAMPLES, the concentration of 2-acetylnaphtho[2,3-b]furan-4,9-dione (Activated form 1) in plasma was measured. Animal species, an administration method, a method of making standard solutions, and a method of measuring the concentration in plasma are as described below.
Animal: Seven-week-aged male CD1 (ICR) mice were used as an experimental animal.
Administration method: A test substance was weighed, and then dissolved in 50 mmol/L glycine buffered saline (pH 2.0) to produce an administration solution. The body weight of a mouse was measured, and the prepared administration solution was intravenously administered.
Blood collecting method: Heparin was added to a blood-collecting vessel, and blood was collected from a mouse. To the obtained blood, 46% of Citric acid was added in 1% volume. It was then centrifuged to obtain plasma. To the collected plasma, 1 mol/L HCl was added in 10% volume to produce a plasma sample. A sample obtained by adding 10% volume of 1 mol/L HCl to blank plasma was used as a blank sample.
Making of a standard solution: One mg of a test sample was weighed, and dissolved in 10 mL of acetonitrile using a measuring flask to make a standard solution of 100 ug/mL.
Measurement of the concentration in plasma: One hundred ug/mL of the standard solution was diluted in 50% acetonitrile solution to make calibration curve samples of target concentrations. Twenty uL of a blank sample was added to 18 uL of the calibration curve sample to make a plasma calibration curve sample. Eighteen uL of 50% acetonitrile solution was added to 20 uL of the administered plasma sample to make a sample for plasma analysis. One hundred uL of acetonitrile (containing 1% volume of 10 mol/L HCl) containing an internal standard was added to the plasma calibration curve sample and the sample for plasma analysis, respectively. It should be noted that phenytoin was used as the internal standard and its concentration was prepared in 100 nmol/L. 10 uL of each sample was analyzed with LC-MS. A calibration curve was made from a value (peak ratio) of the peak area of a test substance in MS divided by the peak area of the internal standard, and the concentrations of plasma calibration curve samples. The concentration in a sample was calculated from the peak ratio of each sample and the calibration curve.

[5] = Evaluation of a conversion rate to 2-acetylnaphtho[2,3-b]furan-4,9-dione in human plasma; type: in vitro ADME; settings: 1 umol/L, 37° C.
Procedure, shortened: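 Compounds at 1 umol/L incubated at 37° C in human plasma, CD1 mouse plasma or pH 7.4 phosphate buffer, sampled up to 120 minutes. After acidified acetonitrile protein removal, parent loss and conversion to 2-acetylnaphtho[2,3-b]furan-4,9-dione measured by LC-MS (ESI positive).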

[6] = Solubility test; settings: 50 mmol/L glycine buffer solution (pH 2.0), room temperature, 24 hours shaking
Procedure: A water-soluble prodrug was added into 50 mmol/L glycine buffer solution (pH 2.0). After shaking at room temperature for 24 hours, the mixture was filtered through a membrane filter, and then the filtrate was measured with HPLC.
The measurement condition of HPLC is as described below. HPLC condition column: Acquity UPLC BEH C18, 1.7 um, 50×2.1 mm

CC(=O)c1cc2c(OC(=O)NC[C@H](N)C(=O)O)c3ccccc3c(OC(=O)NC[C@H](N)C(=O)O)c2o1.Cl.Cl [Example 6]
% Measurement value of test compound (decrease rate) ([1]; incubation time 0 min): 100%
% Measurement value of test compound (decrease rate) ([1]; incubation time 5 min): 0%
% Measurement value of test compound (decrease rate) ([1]; incubation time 10 min): 0%
% Measurement value of test compound (decrease rate) ([1]; incubation time 30 min): 0%
% Measurement value of test compound (decrease rate) ([1]; incubation time 60 min): 0%
% Measurement value of test compound (decrease rate) ([1]; incubation time 120 min): 0%
% Measurement value of test compound (decrease rate) ([2]; Phosphate buffer solution (pH 7.4), incubation time 120 min): 0%
% Measurement value of test compound (decrease rate) ([2]; phosphate buffer solution (pH 7.4), incubation time 0 min): 100%
% Measurement value of test compound (decrease rate) ([2]; phosphate buffer solution (pH 7.4), incubation time 5 min): 0%
% Measurement value of test compound (decrease rate) ([2]; phosphate buffer solution (pH 7.4), incubation time 10 min): 0%
% Measurement value of test compound (decrease rate) ([2]; phosphate buffer solution (pH 7.4), incubation time 30 min): 0%
% Measurement value of test compound (decrease rate) ([2]; phosphate buffer solution (pH 7.4), incubation time 60 min): 0%
stability in solution (in words) ([3]; pH 2.0, 25° C.): very stable
% Residual ratio ([3]; pH 2.0, 25° C., 0 hr): 100%
% Residual ratio ([3]; pH 2.0, 25° C., 3 hr): 100%
% Residual ratio ([3]; pH 2.0, 25° C., 6 hr): 100%
% Residual ratio ([3]; pH 2.0, 25° C., 9 hr): 100%
% Residual ratio ([3]; pH 2.0, 25° C., 12 hr): 100%
% Residual ratio ([3]; pH 2.0, 25° C., 24 hr): 99.8%
stability in solution (in words) ([3]; pH 3.0, 25° C.): sufficient stability
% Residual ratio ([3]; pH 3.0, 25° C., 0 hr): 100%
% Residual ratio ([3]; pH 3.0, 25° C., 3 hr): 99.0%
% Residual ratio ([3]; pH 3.0, 25° C., 6 hr): 98.2%
% Residual ratio ([3]; pH 3.0, 25° C., 9 hr): 97.5%
% Residual ratio ([3]; pH 3.0, 25° C., 12 hr): 96.6%
% Residual ratio ([3]; pH 3.0, 25° C., 24 hr): 93.6%
% Residual ratio ([3]; pH 5.0, 25° C., 0 hr): 100%
% Residual ratio ([3]; pH 5.0, 25° C., 3 hr): 27.3%
% Residual ratio ([3]; pH 5.0, 25° C., 6 hr): 10.8%
% Residual ratio ([3]; pH 5.0, 25° C., 9 hr): 3.6%
% Residual ratio ([3]; pH 5.0, 25° C., 12 hr): 0%
% Residual ratio ([3]; pH 5.0, 25° C., 24 hr): 0%
% Residual ratio ([3]; pH 7.4, 25° C., 0 hr): 100%
% Residual ratio ([3]; pH 7.4, 25° C., 3 hr): 0%
% Residual ratio ([3]; pH 7.4, 25° C., 6 hr): 0%
% Residual ratio ([3]; pH 7.4, 25° C., 9 hr): 0%
% Residual ratio ([3]; pH 7.4, 25° C., 12 hr): 0%
% Residual ratio ([3]; pH 7.4, 25° C., 24 hr): 0%
% Residual ratio ([3]; pH 9.0, 25° C., 0 hr): 100%
% Residual ratio ([3]; pH 9.0, 25° C., 3 hr): 0%
% Residual ratio ([3]; pH 9.0, 25° C., 6 hr): 0%
% Residual ratio ([3]; pH 9.0, 25° C., 9 hr): 0%
% Residual ratio ([3]; pH 9.0, 25° C., 12 hr): 0%
% Residual ratio ([3]; pH 9.0, 25° C., 24 hr): 0%
Plasma Compound Concentration ([4]; 0.083 hr, animal 1): 4950 nM
Plasma Compound Concentration ([4]; 0.083 hr, animal 2): 5870 nM
Plasma Compound Concentration ([4]; 0.083 hr, animal 3): 5790 nM
Plasma Compound Concentration ([4]; 0.083 hr, mean): 5540 nM
Plasma Compound Concentration ([4]; 0.5 hr, animal 1): 1170 nM
Plasma Compound Concentration ([4]; 0.5 hr, animal 2): 1070 nM
Plasma Compound Concentration ([4]; 0.5 hr, animal 3): 1660 nM
Plasma Compound Concentration ([4]; 0.5 hr, mean): 1300 nM
Plasma Compound Concentration ([4]; 1.0 hr, animal 1): 530 nM
Plasma Compound Concentration ([4]; 1.0 hr, animal 2): 280 nM
Plasma Compound Concentration ([4]; 1.0 hr, animal 3): 380 nM
Plasma Compound Concentration ([4]; 1.0 hr, mean): 400 nM
Plasma Compound Concentration ([4]; 2.0 hr, animal 1): 250 nM
Plasma Compound Concentration ([4]; 2.0 hr, animal 2): 500 nM
Plasma Compound Concentration ([4]; 2.0 hr, animal 3): 410 nM
Plasma Compound Concentration ([4]; 2.0 hr, mean): 390 nM
production of 2-acetylnaphtho[2,3-b]furan-4,9-dione (Activated form 1) (in words) ([4]; intravenously administered to mice): rapidly produced
% Measurement value of test compound (decrease rate) ([5]; Human plasma, incubation time 120 min): 0%
% Measurement value of test compound (decrease rate) ([5]; human plasma, incubation time 0 min): 100%
% Measurement value of test compound (decrease rate) ([5]; human plasma, incubation time 5 min): 0%
% Measurement value of test compound (decrease rate) ([5]; human plasma, incubation time 10 min): 0%
% Measurement value of test compound (decrease rate) ([5]; human plasma, incubation time 30 min): 0%
% Measurement value of test compound (decrease rate) ([5]; human plasma, incubation time 60 min): 0%
Solubility in pH 2.0 buffer solution [6]: 2.8 mg/mL

From US10800752B2, “Substituted naphtho[2,3-b]furans as water-soluble prodrugs for preventing and/or treating cancer” (BOSTON BIOMEDICAL, INC., priority 2015, dated 2020)
